In ChEMBL document CHEMBL3046894, “Synthesis and Herbicidal Activity of Pyrimidinyl Salicylic and Thiosalicylic Acids” (J Pestic Sci, 1996):
Active and inactive are the calls of the source. No cut-off for these calls is given here.

Tests used:
[1] = test system: Echinochloa crus-galli; assay: Post-emergence herbicidal activity against Echinochloa crus-galli (barnyard grass) assessed as growth inhibition at 25 g a.i/10 a applied 11 days after germination as foliar spray; format: functional, organism-based
[2] = test system: Gossypium hirsutum; assay: Pre-emergence phytotoxicity against Gossypium hirsutum (cotton) assessed as mortality at 6.3 g a.i/10 a; format: organism-based; details: in vivo, other
[3] = test system: Cyperus iria; assay: Pre-emergence herbicidal activity against Cyperus iria assessed as growth inhibition at 25 g a.i/10 a; format: functional, organism-based
[4] = test system: Echinochloa crus-galli; assay: Post-emergence herbicidal activity against Echinochloa crus-galli (barnyard grass) assessed as mortality per 10 acre; format: functional
[5] = test system: Gossypium hirsutum; assay: Post-emergence phytotoxicity against Gossypium hirsutum (cotton) assessed as mortality per 10 acre; format: organism-based; details: in vivo
[6] = test system: Abutilon theophrasti; assay: Post-emergence herbicidal activity against Abutilon theophrasti (velvetleaf) assessed as mortality at 1.6 g a.i/10 a applied 11 days after germination as foliar spray; format: functional; details: 264 h
[7] = test system: Persicaria nodosa; assay: Pre-emergence herbicidal activity against Persicaria nodosa assessed as mortality per 10 acre; format: functional
[8] = test system: Amaranthus retroflexus; assay: Pre-emergence herbicidal activity against Amaranthus retroflexus assessed as growth inhibition at 25 g a.i/10 a; format: functional, organism-based
[9] = test system: Ipomoea lacunosa; assay: Pre-emergence herbicidal activity against Ipomoea lacunosa assessed as mortality at 1.6 g a.i/10 a; format: functional; details: for mortality at 16 g/ha: Ipomoea lacunosa, pre-emergence
[10] = Pre-emergence phytotoxicity against Zea mays (maize) assessed as mortality at 1.6 g a.i/10 a; format: organism-based; details: in vivo, 1.6 g a.i/10 a
[11] = test system: Persicaria nodosa; assay: Pre-emergence herbicidal activity against Persicaria nodosa assessed as growth inhibition at 25 g a.i/10 a; format: functional, organism-based
[12] = test system: Chenopodium album; assay: Post-emergence herbicidal activity against Chenopodium album assessed as growth inhibition at 25 g a.i/10 a applied 11 days after germination as foliar spray; format: functional, organism-based
[13] = test system: Amaranthus retroflexus; assay: Pre-emergence herbicidal activity against Amaranthus retroflexus assessed as mortality per 10 acre; format: functional
[14] = (§1) Post-emergence phytotoxicity against Zea mays (maize) assessed as mortality at 1.6 g a.i/10 a applied 11 days after germination as foliar spray; format: organism-based; details: in vivo, 1.6 g a.i/10 a
[15] = test system: Ipomoea lacunosa; assay: Post-emergence herbicidal activity against Ipomoea lacunosa assessed as mortality at 6.3 g a.i/10 a applied 11 days after germination as foliar spray; format: functional; details: 264 h
[16] = test system: Ipomoea lacunosa; assay: Post-emergence herbicidal activity against Ipomoea lacunosa assessed as mortality at 1.6 g a.i/10 a applied 11 days after germination as foliar spray; format: functional; details: 264 h
[17] = test system: Abutilon theophrasti; assay: Pre-emergence herbicidal activity against Abutilon theophrasti (velvetleaf) assessed as mortality at 6.3 g a.i/10 a; format: functional; details: Abutilon theophrasti, pre-emergence
[18] = test system: Xanthium strumarium; assay: Pre-emergence herbicidal activity against Xanthium strumarium (cocklebur) assessed as mortality per 10 acre; format: functional
[19] = test system: Digitaria sanguinalis; assay: Post-emergence herbicidal activity against Digitaria sanguinalis (hairy crabgrass) assessed as growth inhibition at 25 g a.i/10 a applied 11 days after germination as foliar spray; format: functional, organism-based
[20] = (§2) Post-emergence phytotoxicity against Glycine max (soybean) assessed as mortality at 1.6 g a.i/10 a applied 11 days after germination as foliar spray; format: organism-based; details: in vivo, 1.6 g a.i/10 a
[21] = test system: Gossypium hirsutum; assay: Pre-emergence phytotoxicity against Gossypium hirsutum (cotton) assessed as mortality at 1.6 g a.i/10 a; format: organism-based; details: in vivo, other
[22] = test system: Echinochloa crus-galli; assay: Post-emergence herbicidal activity against Echinochloa crus-galli (barnyard grass) assessed as mortality at 6.3 g a.i/10 a applied 11 days after germination as foliar spray; format: functional; details: 264 h
[23] = test system: Amaranthus retroflexus; assay: Post-emergence herbicidal activity against Amaranthus retroflexus assessed as growth inhibition at 25 g a.i/10 a applied 11 days after germination as foliar spray; format: functional, organism-based
[24] = test system: Xanthium strumarium; assay: Post-emergence herbicidal activity against Xanthium strumarium (cocklebur) assessed as mortality at 6.3 g a.i/10 a applied 11 days after germination as foliar spray; format: functional; details: 264 h
[25] = test system: Amaranthus retroflexus; assay: Post-emergence herbicidal activity against Amaranthus retroflexus assessed as mortality per 10 acre; format: functional
[26] = test system: Glycine max; assay: (§3) Pre-emergence phytotoxicity against Glycine max (soybean) assessed as mortality at 1.6 g a.i/10 a; format: organism-based; details: in vivo, other
[27] = test system: Abutilon theophrasti; assay: Post-emergence herbicidal activity against Abutilon theophrasti (velvetleaf) assessed as mortality at 6.3 g a.i/10 a applied 11 days after germination as foliar spray; format: functional; details: 264 h
[28] = test system: Ipomoea lacunosa; assay: Pre-emergence herbicidal activity against Ipomoea lacunosa assessed as mortality per 10 acre; format: functional
[29] = (§4) Pre-emergence phytotoxicity against Glycine max (soybean) assessed as mortality at 6.3 g a.i/10 a; format: organism-based; details: in vivo, 6.3 g a.i/10 a
[30] = test system: Persicaria nodosa; assay: Post-emergence herbicidal activity against Persicaria nodosa assessed as growth inhibition at 25 g a.i/10 a applied 11 days after germination as foliar spray; format: functional, organism-based
[31] = test system: Ipomoea lacunosa; assay: Post-emergence herbicidal activity against Ipomoea lacunosa assessed as mortality per 10 acre; format: functional
[32] = test system: Persicaria nodosa; assay: Post-emergence herbicidal activity against Persicaria nodosa assessed as mortality per 10 acre; format: functional
[33] = test system: Chenopodium album; assay: Pre-emergence herbicidal activity against Chenopodium album assessed as growth inhibition at 25 g a.i/10 a; format: functional, organism-based
[34] = test system: Gossypium hirsutum; assay: Post-emergence phytotoxicity against Gossypium hirsutum (cotton) assessed as mortality at 6.3 g a.i/10 a applied 11 days after germination as foliar spray; format: organism-based; details: in vivo, other, 264 h
[35] = test system: Echinochloa crus-galli; assay: Pre-emergence herbicidal activity against Echinochloa crus-galli (barnyard grass) assessed as mortality per 10 acre; format: functional
[36] = test system: Cyperus iria; assay: Post-emergence herbicidal activity against Cyperus iria assessed as growth inhibition at 25 g a.i/10 a applied 11 days after germination as foliar spray; format: functional, organism-based
[37] = test system: Gossypium hirsutum; assay: Post-emergence phytotoxicity against Gossypium hirsutum (cotton) assessed as mortality at 1.6 g a.i/10 a applied 11 days after germination as foliar spray; format: organism-based; details: in vivo, other, 264 h
[38] = test system: Gossypium hirsutum; assay: Pre-emergence phytotoxicity against Gossypium hirsutum (cotton) assessed as mortality per 10 acre; format: organism-based; details: in vivo
[39] = test system: Xanthium strumarium; assay: Post-emergence herbicidal activity against Xanthium strumarium (cocklebur) assessed as mortality per 10 acre; format: functional
[40] = test system: Digitaria sanguinalis; assay: Pre-emergence herbicidal activity against Digitaria sanguinalis (hairy crabgrass) assessed as growth inhibition at 25 g a.i/10 a; format: functional, organism-based
[41] = test system: Echinochloa crus-galli; assay: Pre-emergence herbicidal activity against Echinochloa crus-galli (barnyard grass) assessed as mortality at 6.3 g a.i/10 a; format: functional
[42] = test system: Echinochloa crus-galli; assay: Pre-emergence herbicidal activity against Echinochloa crus-galli (barnyard grass) assessed as growth inhibition at 25 g a.i/10 a; format: functional, organism-based
[43] = test system: Xanthium strumarium; assay: Pre-emergence herbicidal activity against Xanthium strumarium (cocklebur) assessed as mortality at 6.3 g a.i/10 a; format: functional
[44] = test system: Xanthium strumarium; assay: Pre-emergence herbicidal activity against Xanthium strumarium (cocklebur) assessed as mortality at 1.6 g a.i/10 a; format: functional
[45] = test system: Glycine max; assay: as §4; format: organism-based; details: in vivo, other
[46] = test system: Zea mays; assay: Post-emergence phytotoxicity against Zea mays (maize) assessed as mortality at 6.3 g a.i/10 a applied 11 days after germination as foliar spray; format: organism-based; details: in vivo, other, 264 h
[47] = test system: Abutilon theophrasti; assay: Pre-emergence herbicidal activity against Abutilon theophrasti (velvetleaf) assessed as mortality at 1.6 g a.i/10 a; format: functional
[48] = test system: Ipomoea lacunosa; assay: Pre-emergence herbicidal activity against Ipomoea lacunosa assessed as mortality at 6.3 g a.i/10 a; format: functional
[49] = test system: Echinochloa crus-galli; assay: Post-emergence herbicidal activity against Echinochloa crus-galli (barnyard grass) assessed as mortality at 1.6 g a.i/10 a applied 11 days after germination as foliar spray; format: functional; details: 264 h
[50] = test system: Zea mays; assay: as §1; format: organism-based; details: in vivo, other, 264 h
[51] = test system: Glycine max; assay: as §2; format: organism-based; details: in vivo, other, 264 h
[52] = test system: Xanthium strumarium; assay: Post-emergence herbicidal activity against Xanthium strumarium (cocklebur) assessed as mortality at 1.6 g a.i/10 a applied 11 days after germination as foliar spray; format: functional; details: 264 h
[53] = as §3; format: organism-based; details: in vivo, 1.6 g a.i/10 a, read-out: Activity
[54] = test system: Zea mays; assay: Pre-emergence phytotoxicity against Zea mays (maize) assessed as mortality at 6.3 g a.i/10 a; format: organism-based; details: in vivo, other
[55] = test system: Echinochloa crus-galli; assay: Pre-emergence herbicidal activity against Echinochloa crus-galli (barnyard grass) assessed as mortality at 1.6 g a.i/10 a; format: functional
[56] = test system: Glycine max; assay: Post-emergence phytotoxicity against Glycine max (soybean) assessed as mortality at 6.3 g a.i/10 a applied 11 days after germination as foliar spray; format: organism-based; details: in vivo, other, 264 h
[57] = Xanthium strumarium, pre-emergence

COc1cc(OC)nc(Oc2cccc(Br)c2C(=O)O)n1
growth inhibition (GI) [1]: Active
Activity [2]: Non-toxic
growth inhibition (GI) [3]: Active
ED90 [4]: inactive
ED20 [5]: 0.2 gAi
mortality at 16 g/ha [6]: > 90%
ED90 [7]: 0.4 gAi
growth inhibition (GI) [8]: Active
mortality at 16 g/ha [9]: < 5%
mortality ([10]; read-out: mortality): > 90%
growth inhibition (GI) [11]: Active
growth inhibition (GI) [12]: Active
ED90 [13]: 0.4 gAi
mortality at 264 h [14]: > 90%
mortality at 63 g/ha [15]: > 90%
mortality at 16 g/ha [16]: > 90%
mortality at 63 g/ha [17]: > 90%
ED90 [18]: 25 gAi
growth inhibition (GI) [19]: Active
mortality at 264 h [20]: > 90%
Activity [21]: Non-toxic
mortality at 63 g/ha [22]: > 90%
growth inhibition (GI) [23]: Active
mortality at 63 g/ha [24]: > 90%
ED90 [25]: 0.2 gAi
Activity [26]: Toxic
mortality at 63 g/ha [27]: > 90%
ED90 [28]: 25 gAi
mortality ([29]; read-out: mortality): > 90%
growth inhibition (GI) [30]: Active
ED90 [31]: 0.8 gAi
ED90 [32]: 0.2 gAi
growth inhibition (GI) [33]: Active
Activity [34]: Toxic
ED90 [35]: 1.5 gAi
growth inhibition (GI) [36]: Active
Activity [37]: Toxic
ED20 [38]: Toxic
ED90 [39]: 1.5 gAi
growth inhibition (GI) [40]: Active
mortality at 63 g/ha ([41]; Echinochloa crus-galli, pre-emergence): > 90%
growth inhibition (GI) [42]: Active

COc1cc(OC)nc(Oc2cccc(C(F)(F)F)c2C(=O)O)n1
growth inhibition (GI) [1]: Active
Activity [2]: Non-toxic
growth inhibition (GI) [3]: Active
mortality at 63 g/ha [43, 57]: < 5%
mortality at 16 g/ha [44, 57]: < 5%
mortality at 16 g/ha [6]: > 90%
growth inhibition (GI) [8]: Active
mortality at 16 g/ha [9]: < 5%
mortality ([10]; read-out: mortality): > 90%
growth inhibition (GI) [11]: Active
growth inhibition (GI) [12]: Active
mortality at 264 h [14]: > 90%
mortality at 63 g/ha [15]: > 90%
growth inhibition (GI) [19]: Active
mortality at 264 h [20]: > 90%
Activity [21]: Non-toxic
growth inhibition (GI) [23]: Active
mortality at 63 g/ha [24]: > 90%
Activity [26]: Toxic
mortality at 63 g/ha [27]: > 90%
Activity [45]: Toxic
growth inhibition (GI) [30]: Active
growth inhibition (GI) [33]: Active
Activity [34]: Toxic
growth inhibition (GI) [36]: Active
Activity [37]: Toxic
growth inhibition (GI) [40]: Active
growth inhibition (GI) [42]: Active

CCCOc1cccc(Sc2nc(OC)cc(OC)n2)c1C(=O)O
Activity [2]: Non-toxic
Activity [46]: Toxic
Activity [43]: <50%
Activity [47]: <50%
Activity [48]: <50%
Activity [44]: <50%
Activity [9]: <50%
mortality ([10]; read-out: Activity): < 50%
mortality at 16 g/ha [49]: < 5%
Activity [50]: Non-toxic
mortality at 63 g/ha [15]: < 5%
mortality at 16 g/ha [16]: < 5%
Activity [51]: Non-toxic
Activity [21]: Non-toxic
mortality at 16 g/ha [52]: < 5%
mortality at 63 g/ha [22]: < 5%
mortality [53]: < 50%
mortality ([29]; read-out: Activity): < 50%
Activity [54]: < 50%
Activity [34]: Toxic
Activity [37]: Non-toxic
Activity [55]: <50%
Activity [56]: Toxic
Activity [41]: <50%
